Assays:
[1] = system: M. tuberculosis H37Ra; assay type: cell-based, Mycobacterium tuberculosis
[2] = system: M. bovis BCG Pasteur ATCC 35734; assay type: cell-based
[3] = system: E. faecium ATCC 700221; assay: Neutropenic thigh infection mouse model with VanA E. faecium; assay type: in vivo; conditions: compound 17 4 doses at 100 mg/kg i.p., linezolid 4 doses at 50 mg/kg i.p.

Compound | MIC, M. tuberculosis H37Ra [1] [µg/mL] | MIC, M. bovis BCG Pasteur ATCC 35734 [2] [µg/mL] | weight loss compared to untreated control mice [3] | survival (endpoint: 15% of starting weight lost) ([3]; neutropenic mice, Kaplan–Meier, *P < 0.05 Gehan–Breslow–Wilcoxon test)
complestatin | >64 | 64 |  | 
CC(=O)NC[C@H]1CN(c2ccc(N3CCOCC3)c(F)c2)C(=O)O1 [linezolid] |  |  | reduced weight loss | significant survival benefit

From article PMC10350919 (Journal of Medicinal Chemistry, 2023)
